Experimental data published in patent US5428048A, “Aryl-N-hydroxyureas as inhibitors of 5-lipoxygenase and anto-arteriosclerotic agents” (American Home Products Corporation, priority 1993, dated 1995).
Values belong to the molecule of their own block, whether it stands above or below them.

Assays:
[1] = test system: Lipoxygenase; test: Ex-Vivo Measurement of Lipoxygenase Inhibition in Orally Dosed Rats (LTB4 in A23187-stimulated blood); parameters: species or system Male Sprague Dawley rats; details: ex vivo rat, p.o., pretreatment 3 hr
Method: 2. […] After an interval of 3 or 6 hours, the rats were anesthetized with metofane (n =4/group) and blood collected in heparinized tubes. White blood cell counts and differentials were made. One ml of blood from each animal was placed in a 5 ml plastic tube in a shaker bath at 37° C. A23187 at a final concentration of 10 μM was added to the blood and the blood vortexed and incubated for 15 min at 37° C. with gentle shaking. Incubation was terminated by vortexing sample and centrifuging immediately at 1200 xG for 15 min at 4° C. The plasma was transferred to 15 ml plastic tubes each containing 8 ml of methanol to precipitate protein followed by vortexing. The samples were stored at -70° C. overnight and the next day the samples were centrifuged at 800 xG for 15 min to pellet the precipitate. The samples were dried in a Savant SpeedVac Concentrator Model SVC 200H and reconstituted to the original volume with cold RIA or ELISA buffer. The reconstituted samples were stored at -70° C. until assayed. The assay for LTB4 was perforated according to the directions of the [^3 H]RIA kit or ELISA kit (Seragen). The total metabolite level in 1 ml of blood is calculated and reported as ng/10^6 neutrophils. Significance is determined by a one-way analysis of variance with LSD comparisons to control (p<0.05).

[2] = molecular target: T1, 5-Lipoxygenase (Homo sapiens, UniProt P09917); test: Inhibition of 5-Lipoxygenase in Human Whole Blood (ionophore A23187-stimulated LTB4); type: cell-based
T1 construct: endogenous in cells; host or cells: whole blood of male human donors (results per 10^6 neutrophils)
T1 sequence (P09917 1-674): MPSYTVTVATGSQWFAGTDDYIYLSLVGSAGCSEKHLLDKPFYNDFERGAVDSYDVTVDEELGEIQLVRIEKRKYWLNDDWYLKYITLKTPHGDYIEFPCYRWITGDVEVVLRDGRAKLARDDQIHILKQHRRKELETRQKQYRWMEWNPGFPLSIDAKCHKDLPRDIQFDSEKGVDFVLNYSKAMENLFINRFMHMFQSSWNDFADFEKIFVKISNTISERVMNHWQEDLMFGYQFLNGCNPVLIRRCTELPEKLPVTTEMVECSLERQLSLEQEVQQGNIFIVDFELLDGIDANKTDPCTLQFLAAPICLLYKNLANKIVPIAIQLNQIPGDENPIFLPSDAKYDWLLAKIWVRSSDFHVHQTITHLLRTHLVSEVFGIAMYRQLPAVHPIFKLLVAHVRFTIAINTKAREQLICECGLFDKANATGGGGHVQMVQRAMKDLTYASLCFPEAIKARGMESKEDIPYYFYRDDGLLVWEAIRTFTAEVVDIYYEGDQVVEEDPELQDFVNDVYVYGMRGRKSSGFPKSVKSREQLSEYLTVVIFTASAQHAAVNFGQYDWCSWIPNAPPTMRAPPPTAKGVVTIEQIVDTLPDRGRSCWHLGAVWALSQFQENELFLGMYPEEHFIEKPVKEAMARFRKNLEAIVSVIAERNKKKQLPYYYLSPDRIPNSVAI
Method: 1. Inhibition of 5-Lipoxygenase in Human Whole Blood
Blood is obtained in 50-100 ml quantities from male donors. White blood cell counts and differentials are made. Two ml of blood are placed in a 15 ml polypropylene test tube. Test compounds are solubilized in dimethylsulfoxide and diluted in 1:10 in 10% bovine serum albumin in phosphate buffered saline, pH 7.4 resulting in a final dimethylsulfoxide concentration of 0.1% in the blood. Then, solutions of test compounds are added to the blood in a shaking water bath at 37° C. for 10 minutes prior to the addition of 30 μM calcium ionophore (A23187, Sigma). After ionophore administration, whole blood samples are mixed and incubated for 20 minutes at 37° C. in a shaking water bath. Incubation is terminated by placing samples in an ice bath and immediately adding ethylene glycol-bis-(β-aminoethyl ether)-N, N,N',N'-tetraacetic acid (10 mM). Samples are mixed and centrifuged at 1200×g for 15 minutes at […]. Preparation of samples for evaluation by RIA or ELISA is carded out by the following protocol. Plasma is removed from sample tubes, placed in 15 ml polypropylene test tubes containing 8 ml methanol, and then vortexed to precipitate protein. Samples are stored at -70° C. overnight. The next day, samples are centrifuged at 200×g for 15 minutes at 4° C. to pellet the precipitate. Samples are dried in a Savant SpeedVac Concentrator, Model SVC 200H, reconstituted to original volume with ice cold RIA or ELISA buffer, and stored at -70° C. until assayed. The assay for eicosanoids (LTB4, TxB2, and PGE2) is performed as described by the manufacturer of the [^3 H]-RIA kit or ELISA kit (LTB4 -Amersham, TxB2 and PGE2 - Caymen Chemical).
The total eicosanoid level in 2 ml of blood is calculated and reported as ng/10^6 neutrophils. Significance is determined by a one-way analysis of variance with least significant difference (LSD) comparisons to control (p≤0.05) and IC50 's (μM) are determined by regression analysis (Finney, 1978). Drug effects are expressed as percent change from control values.

[3] = test system: LTB4 Synthesis; test: Reverse Passive Arthus Reaction (pleurisy, LTB4 in pleural exudate); type: in vivo, male Lewis rats; details: for % Inhibition LTB4 Synthesis: 25 mg/kg p.o.; for % Inhibition of LTB4 / ED50: standard drugs; for ED50: Rattus norvegicus, po, ED50 printed in parentheses
Method: 3. Reverse Passive Arthus Reaction
A reverse passive Arthus reaction is induced in the pleural cavity of male Lewis rats (150°-200 g; fasted overnight prior to use) by the intravenous administration of bovine serum albumin (BSA; 4 mg/0.2 ml) followed 30 minutes later by the injection of rabbit anti-BSA (1 mg/0.2 ml; lyophilized IgG fraction; Organon Teknika, West Chester, Pa.) into the right pleural space under halothane anesthesia. Drugs or vehicle (0.5% Tween-80) control are administered orally in a volume of 1 ml/100 g body weight at 1 hour prior to the anti-BSA. Animals are sacrificed at either the time of peak eicosanoid production (i.e. 5 minutes after anti-BSA for immunoreactive TxB2, 10 minutes for immunoreactive LTB4, 20 minutes for immunoreactive LTC4) or at the time of peak neutrophil infiltration (4 hours after anti-BSA) by CO2 inhalation. The pleural cavity is then exposed, the fluid exudate removed by gentle vacuum aspiration and the volume of exudate is recorded. For the determination of cellular infiltration, the pleural cavity is rinsed with 3 ml of 0.1% EDTA in sterile saline, and the recovered wash is pooled with the exudate. Cell number is determined on a model ZBI Coulter counter. For determination of eicosanoid production, undiluted pleural exudate is microfuged and the supernatant is extracted with ethanol (8-10 times volume). Extracts are either stored at -20° C., or are evaporated to dryness under a stream of N2 and reconstituted in radioimmunoassay (RIA) buffer.
Eicosanoids are quantitated by RIA according to the procedure specified by the RIA kit manufacturer (Advanced Magnetics, Cambridge, MA). Briefly, 100 μl of ^3 H-labeled eicosanoid and 100 μl of specific antibody ,are sequentially added to 100 μl of extracted pleural exudate in BGG-phosphate buffer which contains 0.01M phosphate, 0.1% bovine gamma globulin and 0.1% sodium azide at pH 7.0. Antibody-bound eicosanoid is separated from unbound eicosanoid by the addition of 750 μl of dextran (0.4%)-coated charcoal (Norit A) containing 0.1% sodium azide. The mixture is centrifuged at 2000 RPM at 5° C. for 15 minutes to pellet the charcoal and adsorbed unbound eicosanoid. Antibody-bound labeled eicosanoid is quantitated by counting in a liquid scintillation counter, and is correlated to concentration by a standard curve.

Structure (SMILES): COc1ccc2cc([C@H](C)C(=O)O)ccc2c1 [Naproxen, reference compound]
% Inhibition of LTB4 ([3]; 4 mg/kg p.o.): 0%

Structure (SMILES): Cc1oc(-c2ccccc2)nc1CCOc1cccc(C(C)N(O)C(N)=O)c1 (centres unmarked) [Example 5, 1-Hydroxy-1-[1-[3-[2-(5-methyl-2-phenyl-oxazol-4-yl)-ethoxy]-phenyl]ethyl]-urea]
inhibition at 1 µM [2]: 34%

Structure (SMILES): COC(=O)N(O)Cc1ccc(OCCN(C)c2nc3ccccc3o2)cc1 [Example 24]
inhibition at 10 µM [2]: 77%

Structure (SMILES): NC(=O)N(O)Cc1ccc(OCCc2csc(-c3ccccc3)n2)cc1 [Example 17, 1-Hydroxy-1-[4-[2-(2-phenyl-thiazol-4-yl)-ethoxy]-benzyl]-urea]
inhibition at 10 µM [2]: 93%

Structure (SMILES): CN(CCOc1ccc(CN(O)C(N)=O)cc1)c1nc2ccccc2o1 [Example 22, 1-[4-[2-(-Benzoxazol-2-yl-methyl-amino)-ethoxy]-benzyl]-1-hydroxy-urea]
inhibition at 10 µM [2]: 60%

Structure (SMILES): O=C(O)Cc1ccccc1Nc1c(Cl)cccc1Cl [Diclofenac, reference compound]
% Inhibition of LTB4 ([3]; 10 mg/kg p.o.): 0%

Structure (SMILES): COc1ccc2c(c1)c(CC(=O)O)c(C)n2C(=O)c1ccc(Cl)cc1 [Indomethacin, reference compound]
% Inhibition of LTB4 ([3]; 4 mg/kg p.o.): 12%

Structure (SMILES): NC(=S)N(O)Cc1ccc(OCCc2csc(-c3ccccc3)n2)cc1 [Example 18]
inhibition at 10 µM [2]: 94%

Structure (SMILES): Cc1oc(-c2ccccc2)nc1CCOc1cccc(CN(O)C(N)=O)c1 [Example 2, 1-Hydroxy-1-[3-[2-(5-methyl-2-phenyl-oxazol-4-yl)-ethoxy]-benzyl]-urea]
% Inhibition of LTB4 ([1]; dose 25 (mg/kg)): 21%
inhibition at 1 µM [2]: 51%
% Inhibition LTB4 Synthesis [3]: 53%

Structure (SMILES): CC(=O)N(O)Cc1ccc(OCCN(C)c2nc3ccccc3o2)cc1 [Example 23, N-[4-[2-(Benzoxazol-2-yl-methyl-amino)-ethoxy]-benzyl]-N-hydroxy-acetamide]
% Inhibition of LTB4 ([1]; dose 25 (mg/kg)): 78%
inhibition at 1 µM [2]: 39%

Structure (SMILES): Cc1oc(-c2ccc(C(F)(F)F)cc2)nc1CCOc1ccc(CN(O)C(N)=O)cc1F [Example 14]
inhibition at 1 µM [2]: 36%

Structure (SMILES): Cc1cc(OCCc2nc(-c3ccccc3)oc2C)cc(C)c1CN(O)C(N)=O [Example 9, 1-[2,6-Dimethyl-4-[2-(5-methyl-2-phenyl-oxazol-4-yl)-ethoxy]-benzyl]-1-hydroxy-urea]
inhibition at 10 µM [2]: 42%

Structure (SMILES): Cc1oc(-c2ccc(C(F)(F)F)cc2)nc1CCOc1c(Cl)cc(CN(O)C(N)=O)cc1Cl [Example 15, 1-[3,5-Dichloro-4-[2-[5-methyl-2-(4-trifluoromethyl-phenyl)-oxazol-4-yl]ethoxy]-benzyl]-1-hydroxy-urea]
inhibition at 1 µM [2]: 38%

Structure (SMILES): NC1=NN(c2cccc(C(F)(F)F)c2)CC1 [BW755C, reference compound]
ED50 [3]: 23 mg/kg

Structure (SMILES): O=C1CCN(c2ccccc2)N1 [Phenidone, reference compound]
ED50 [3]: 10 mg/kg

Structure (SMILES): NC(=O)N(O)Cc1cccc(OCCc2csc(-c3ccc(C(F)(F)F)cc3)n2)c1 [Example 20, 1-Hydroxy-1-[3-[2-[2-(4-trifluoromethyl-phenyl)-thiazol-4-yl]-ethoxy]-benzyl]-urea]
inhibition at 1 µM [2]: 30%

Structure (SMILES): CC(C(=O)O)c1cccc(C(=O)c2ccccc2)c1 (centres unmarked) [Ketoprofen, reference compound]
% Inhibition of LTB4 ([3]; 10 mg/kg p.o.): 35%

Further lines, with some results ahead:

inhibition at 1 µM [2]: 57%
Structure (SMILES): COc1ccc(-c2nc(CCOc3ccc(CN(O)C(N)=O)cc3)c(C)o2)cc1 [Example 3, 1-Hydroxy-1-[4-[2-[2-(4-methoxy-phenyl)-5-methyl-oxazol-4-yl]-ethoxy]benzyl]-urea]
% Inhibition of LTB4 ([1]; dose 25 (mg/kg)): 32%

inhibition at 1 µM [2]: 63%
Structure (SMILES): Cc1oc(-c2cccc(F)c2)nc1CCOc1ccc(CN(O)C(N)=O)cc1 [Example 7]
% Inhibition of LTB4 ([1]; dose 10 (mg/kg)): 79%
% Inhibition LTB4 Synthesis [3]: 38%

inhibition at 1 µM [2]: 71%
Structure (SMILES): Cc1oc(-c2ccccc2)nc1CCOc1ccc(CN(O)C(N)=O)cc1F [Example 12, 1-[3-Fluoro-4-[2-(5-methyl-2-phenyl-oxazol-4-yl)-ethoxy]-benzyl]-1-hydroxy-urea]
% Inhibition of LTB4 ([1]; dose 10 (mg/kg)): 52%
% Inhibition LTB4 Synthesis [3]: 58%

inhibition at 1 µM [2]: 54%
Structure (SMILES): Cc1oc(-c2ccccc2F)nc1CCOc1ccc(CN(O)C(N)=O)cc1 [Example 6, 1-[4-[2-[2-(2-Fluoro-phenyl)-5-methyl-oxazol-4-yl]-ethoxy]-benzyl]-1-hydroxy-urea]
% Inhibition of LTB4 ([1]; dose 10 (mg/kg)): 71%
% Inhibition LTB4 Synthesis [3]: 48%

inhibition at 1 µM [2]: 50%
Structure (SMILES): Cc1oc(-c2ccc(SC(F)(F)F)cc2)nc1CCOc1ccc(CN(O)C(N)=O)cc1 [Example 16, 1-Hydroxy-1-[4-[2-[5-methyl-2-(4-trifluoromethylsulfanyl-phenyl)-oxazol-4yl]-ethoxy]-benzyl]-urea]

inhibition at 1 µM [2]: 40%
Structure (SMILES): Cc1ccc(-c2nc(CCOc3ccc(CN(O)C(N)=O)cc3)c(C)o2)cc1 [Example 11, 1-Hydroxy-1-[4-[2-(5-methyl-2-(p-tolyl)-oxazol-4-yl]-ethoxy]-benzyl]-urea]

inhibition at 1 µM [2]: 70%
Structure (SMILES): Cc1oc(-c2ccc(F)cc2)nc1CCOc1ccc(CN(O)C(N)=O)cc1 [Example 8, 1-[4-[2-[2-(4-Fluoro-phenyl)-5-methyl-oxazol-4-yl)-ethoxy]-benzyl]-1-hydroxy-urea]
% Inhibition of LTB4 ([1]; dose 10 (mg/kg)): 66%
